Consider 24 compounds from US20250312352A1, “GLP-1R MODULATING COMPOUNDS” (Gilead Sciences, Inc., priority 2021, published 2025).

The term EC50 denotes the concentration giving half of the maximal effect.

The target of this experiment is T1, GLP-1R (Homo sapiens, UniProt P43220).
T1 construct: host or cells: CHO cells
T1 sequence (P43220 24-463): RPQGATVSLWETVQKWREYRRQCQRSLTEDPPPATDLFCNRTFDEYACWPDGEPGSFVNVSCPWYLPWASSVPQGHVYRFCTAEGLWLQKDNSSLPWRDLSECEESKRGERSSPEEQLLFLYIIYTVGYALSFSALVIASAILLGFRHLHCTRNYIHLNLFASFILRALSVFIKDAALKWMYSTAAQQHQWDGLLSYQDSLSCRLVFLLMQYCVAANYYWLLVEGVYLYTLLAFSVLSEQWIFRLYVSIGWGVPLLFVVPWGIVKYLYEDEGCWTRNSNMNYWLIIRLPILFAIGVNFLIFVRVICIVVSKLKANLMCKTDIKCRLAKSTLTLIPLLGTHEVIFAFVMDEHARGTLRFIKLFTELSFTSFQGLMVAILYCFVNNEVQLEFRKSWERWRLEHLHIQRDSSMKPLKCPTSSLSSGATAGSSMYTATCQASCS
As to the kind of experiment: GLP-1R activation cAMP assay (Assay 1 or Assay 2). The experiment is classed as cell-based. Conditions: cAMP increase in CHO cells stably expressing GLP-1R; compounds run on one of the two cAMP assays. The procedure, abridged: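 CHO cells stably expressing human GLP-1R were incubated 1 h in HBSS/20 mM HEPES/0.1% BSA, then exposed to 10-point agonist dilutions for 30 min at 37 °C. cAMP increase was measured with an HTRF Gs dynamic kit; EC50 from sigmoidal fit of response versus log concentration.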
(cAMP levels reflect the balance of adenylyl cyclase and phosphodiesterase activity.)
`COc1nnc(COc2cccc(-c3cc(Cl)c(Cc4nc5ccc(C(=O)O)cc5n4[C@@H]4COCC4(C)C)cc3F)n2)s1` [Example 434, (S)-2-(2-chloro-5-fluoro-4-(6-((5-methoxy-1,3,4-thiadiazol-2-yl)methoxy)pyridin-2-yl)benzyl)-1-(4,4-dimethyltetrahydrofuran-3-yl)-1H-benzo[d]imidazole-6-carboxylic acid] showed an EC50 of 0.087 nM. As for `O=C(O)c1ccc2nc(Cc3cc(F)c(-c4cccc(OCc5nc(C(F)(F)F)cs5)n4)cc3F)n(C[C@@H]3CCO3)c2c1` [Example 53, (S)-2-(2,5-difluoro-4-(6-((4-(trifluoromethyl)thiazol-2-yl)methoxy)pyridin-2-yl)benzyl)-1-(oxetan-2-ylmethyl)-1H-benzo[d]imidazole-6-carboxylic acid], the EC50 was 0.38 nM. Compound `COc1nnc(COc2cccc(-c3cc(F)c(Cc4nc5c(F)cc(C(=O)O)cc5n4C[C@@H]4CCO4)cc3F)n2)s1` [Example 351, (S)-2-(2,5-difluoro-4-(6-((5-methoxy-1,3,4-thiadiazol-2-yl)methoxy)pyridin-2-yl)benzyl)-4-fluoro-1-(oxetan-2-ylmethyl)-1H-benzo[d]imidazole-6-carboxylic acid] gave an EC50 of 0.182 nM. For `NC(=O)c1cccc(COc2cccc(-c3cc(F)c(Cc4nc5ccc(C(=O)O)cc5n4C[C@@H]4CCO4)cc3F)n2)n1` [Example 374, (S)-2-(4-(6-((6-carbamoylpyridin-2-yl)methoxy)pyridin-2-yl)-2,5-difluorobenzyl)-1-(oxetan-2-ylmethyl)-1H-benzo[d]imidazole-6-carboxylic acid] the value was 0.478 nM; for `O=C(O)c1ccc2nc(Cc3cc(F)c(-c4cccc(OCc5ccc(C#Cc6nccs6)cc5F)n4)cc3F)n(C[C@@H]3CCO3)c2c1` [Example 141, (S)-2-(2,5-difluoro-4-(6-((2-fluoro-4-(thiazol-2-ylethynyl)benzyl)oxy)pyridin-2-yl)benzyl)-1-(oxetan-2-ylmethyl)-1H-benzo[d]imidazole-6-carboxylic acid], 0.33 nM; for `CC(C)(C)OC(=O)N[C@H]1C[C@@H](n2cc(-c3ccc(COc4cccc(-c5cc(F)c(Cc6nc7ccc(C(=O)O)cc7n6C[C@@H]6CCO6)cc5F)n4)c(F)c3)nn2)C1` [Example 219, 2-(4-(6-((4-(1-((1s,3s)-3-((tert-butoxycarbonyl)amino)cyclobutyl)-1H-1,2,3-triazol-4-yl)-2-fluorobenzyl)oxy)pyridin-2-yl)-2,5-difluorobenzyl)-1-(((S)-oxetan-2-yl)methyl)-1H-benzo[d]imidazole-6-carboxylic acid], 0.85 nM.

In turn, `O=C(O)c1ccc2nc(Cc3cc(F)c(-c4cccc(OCc5nccn5C(F)F)n4)cc3F)n(C[C@@H]3CCO3)c2c1` [Example 19, (S)-2-(4-(6-((1-(difluoromethyl)-1H-imidazol-2-yl)methoxy)pyridin-2-yl)-2,5-difluorobenzyl)-1-(oxetan-2-ylmethyl)-1H-benzo[d]imidazole-6-carboxylic acid] yielded an EC50 of 23.2 nM.

Consider `Cn1cc(C#Cc2ccc(COc3cccc(-c4cc(F)c(Cc5nc6ccc(C(=O)O)cc6n5C[C@@H]5CCO5)cc4F)n3)c(F)c2)cn1` [Example 132, (S)-2-(2,5-difluoro-4-(6-((2-fluoro-4-((1-methyl-1H-pyrazol-4-yl)ethynyl)benzyl)oxy)pyridin-2-yl)benzyl)-1-(oxetan-2-ylmethyl)-1H-benzo[d]imidazole-6-carboxylic acid], for which the EC50 was 0.17 nM.

On to `O=C(O)c1ccc2nc(Cc3cc(F)c(-c4cccc(OCc5ccc(C#Cc6cnn(C(F)F)c6)cc5F)n4)cc3F)n(C[C@@H]3CCO3)c2c1` [Example 287, (S)-2-(4-(6-((4-((1-(difluoromethyl)-1H-pyrazol-4-yl)ethynyl)-2-fluorobenzyl)oxy)pyridin-2-yl)-2,5-difluorobenzyl)-1-(oxetan-2-ylmethyl)-1H-benzo[d]imidazole-6-carboxylic acid], for which the response was half-maximal at 0.185 nM (EC50). The value for `Cc1cc(Cc2nc3c(F)cc(C(=O)O)cc3n2[C@@H]2COCC2(C)C)c(F)cc1-c1ccc(F)c(OCc2ncc(C(F)(F)F)s2)n1` [Example 436, (S)-1-(4,4-dimethyltetrahydrofuran-3-yl)-4-fluoro-2-(2-fluoro-4-(5-fluoro-6-((5-(trifluoromethyl)thiazol-2-yl)methoxy)pyridin-2-yl)-5-methylbenzyl)-1H-benzo[d]imidazole-6-carboxylic acid] was 0.367 nM. For `NC(=O)c1cnc(COc2cccc(-c3cc(F)c(Cc4nc5ccc(C(=O)O)cc5n4C[C@@H]4CCO4)cc3F)n2)cn1` [Example 209, (S)-2-(4-(6-((5-carbamoylpyrazin-2-yl)methoxy)pyridin-2-yl)-2,5-difluorobenzyl)-1-(oxetan-2-ylmethyl)-1H-benzo[d]imidazole-6-carboxylic acid] the value was 0.14 nM. On to `O=C(O)c1ccc2nc(Cc3cc(F)c(-c4cccc(OCc5nnc(-c6cnn(C7CC7)c6)s5)n4)cc3F)n(C[C@@H]3CCO3)c2c1` [Example 96, (S)-2-(4-(6-((5-(1-cyclopropyl-1H-pyrazol-4-yl)-1,3,4-thiadiazol-2-yl)methoxy)pyridin-2-yl)-2,5-difluorobenzyl)-1-(oxetan-2-ylmethyl)-1H-benzo[d]imidazole-6-carboxylic acid], for which it took 0.13 nM to reach a half-maximal effect (EC50).

The compound `CC1(C)COC[C@H]1n1c(Cc2cc(F)c(-c3cccc(OCc4nnc(C(F)F)s4)n3)cc2F)nc2ccc(C(=O)O)cc21` [Example 432, (S)-2-(4-(6-((5-(difluoromethyl)-1,3,4-thiadiazol-2-yl)methoxy)pyridin-2-yl)-2,5-difluorobenzyl)-1-(4,4-dimethyltetrahydrofuran-3-yl)-1H-benzo[d]imidazole-6-carboxylic acid] came in with an EC50 of 0.093 nM. As for `CC1(C)COCC1n1c(Cc2cc(F)c(-c3cccc(OCc4ncc(C(F)F)s4)n3)cc2F)nc2c(F)cc(C(=O)O)cc21` (stereo not drawn) [Example 341, 2-(4-(6-((5-(difluoromethyl)thiazol-2-yl)methoxy)pyridin-2-yl)-2,5-difluorobenzyl)-1-(4,4-dimethyltetrahydrofuran-3-yl)-4-fluoro-1H-benzo[d]imidazole-6-carboxylic acid], the EC50 was 0.772 nM. With `O=C(O)c1cc(F)c2nc(Cc3cc(F)c(-c4ccnc(OCc5ncc(C(F)(F)F)s5)n4)cc3F)n(C[C@@H]3CCO3)c2c1` [Example 408, (S)-2-(2,5-difluoro-4-(2-((5-(trifluoromethyl)thiazol-2-yl)methoxy)pyrimidin-4-yl)benzyl)-4-fluoro-1-(oxetan-2-ylmethyl)-1H-benzo[d]imidazole-6-carboxylic acid], the EC50 was determined as 0.381 nM. For `N#Cc1ccc(COc2cccc(-c3cc(F)c(Cc4nc5ccc(C(=O)O)cc5n4C[C@@H]4CCO4)cc3F)n2)o1` [Example 14, (S)-2-(4-(6-((5-cyanofuran-2-yl)methoxy)pyridin-2-yl)-2,5-difluorobenzyl)-1-(oxetan-2-ylmethyl)-1H-benzo[d]imidazole-6-carboxylic acid] the value was 5.68 nM. Turning to `COCCn1c(Cc2cc(F)c(-c3cccc(OCc4nnc(OC)s4)n3)cc2Cl)nc2c(F)cc(C(=O)O)cc21` [Example 315, 2-(2-chloro-5-fluoro-4-(6-((5-methoxy-1,3,4-thiadiazol-2-yl)methoxy)pyridin-2-yl)benzyl)-4-fluoro-1-(2-methoxyethyl)-1H-benzo[d]imidazole-6-carboxylic acid], a half-maximal response (EC50) required 0.764 nM. Compound `NC(=O)c1ccc(COc2cccc(-c3ccc(Cc4nc5ccc(C(=O)O)cc5n4C[C@@H]4CCO4)cc3F)n2)cn1` [Example 173, (S)-2-(4-(6-((6-carbamoylpyridin-3-yl)methoxy)pyridin-2-yl)-3-fluorobenzyl)-1-(oxetan-2-ylmethyl)-1H-benzo[d]imidazole-6-carboxylic acid] had a concentration for a half-maximal effect (EC50) of 23.2 nM. `O=C(O)c1ccc2nc(Cc3cc(F)c(-c4cccc(OCc5ccc(-c6cn([C@@H]7CCOC7)nn6)cc5F)n4)cc3F)n(C[C@@H]3CCO3)c2c1` [Example 213]: a half-maximal effect (EC50) was put at 0.48 nM. The value for `Cn1cc(C#Cc2cnc(COc3cccc(-c4cc(F)c(Cc5nc6ccc(C(=O)O)cc6n5C[C@@H]5CCO5)cc4F)n3)c(Cl)c2)cn1` [Example 302, (S)-2-(4-(6-((3-chloro-5-((1-methyl-1H-pyrazol-4-yl)ethynyl)pyridin-2-yl)methoxy)pyridin-2-yl)-2,5-difluorobenzyl)-1-(oxetan-2-ylmethyl)-1H-benzo[d]imidazole-6-carboxylic acid] was 0.567 nM; that for `CCOc1nnc(COc2nc(-c3cc(F)c(Cc4nc5ccc(C(=O)O)cc5n4[C@@H]4COCC4(C)C)c(F)c3F)ccc2F)s1` [Example 265, (S)-1-(4,4-dimethyltetrahydrofuran-3-yl)-2-(4-(6-((5-ethoxy-1,3,4-thiadiazol-2-yl)methoxy)-5-fluoropyridin-2-yl)-2,3,6-trifluorobenzyl)-1H-benzo[d]imidazole-6-carboxylic acid] was 0.152 nM; that for `O=C(O)c1ccc2nc(Cc3cc(F)c(-c4cccc(OCc5cc[nH]n5)n4)cc3F)n(C[C@@H]3CCO3)c2c1` [Example 181, (S)-2-(4-(6-((1H-pyrazol-3-yl)methoxy)pyridin-2-yl)-2,5-difluorobenzyl)-1-(oxetan-2-ylmethyl)-1H-benzo[d]imidazole-6-carboxylic acid] was 5.99 nM. For `Cn1nccc1-c1cnc(COc2cccc(-c3cc(F)c(Cc4nc5ccc(C(=O)O)cc5n4C[C@@H]4CCO4)cc3F)n2)s1` [Example 94, (S)-2-(2,5-difluoro-4-(6-((5-(1-methyl-1H-pyrazol-5-yl)thiazol-2-yl)methoxy)pyridin-2-yl)benzyl)-1-(oxetan-2-ylmethyl)-1H-benzo[d]imidazole-6-carboxylic acid] the value was 2.87 nM. For `O=C(O)c1ccc2nc(Cc3cc(F)c(-c4cccc(OCc5ncc(-c6cnn(CC7CC7)c6)s5)n4)cc3F)n(C[C@@H]3CCO3)c2c1` [Example 88, (S)-2-(4-(6-((5-(1-(cyclopropylmethyl)-1H-pyrazol-4-yl)thiazol-2-yl)methoxy)pyridin-2-yl)-2,5-difluorobenzyl)-1-(oxetan-2-ylmethyl)-1H-benzo[d]imidazole-6-carboxylic acid] the value was 0.44 nM.
